Literature values in US20140056863A1, “NUTRITIONAL COMPOSITIONS HAVING ALPHA-HICA AND EICOSAPENTAENOIC ACID” (Nestec S.A., priority 2011, published 2014).

Assays:
[1] = test system: intestinal mammalian target of rapamycin (mTOR); details: piglet stressed with LPS; leading to increased protein synthesis and anti-inflammatory responses
[2] = test system: malnourished aged animals

Structure (SMILES) | phosphorylation of intestinal mTOR [1] | anabolic effect [2]
O=C(O)CCC(=O)C(=O)O [AKG, α-ketoglutarate] | increased phosphorylation | 
NC(=O)NCCC[C@H](N)C(=O)O [Citrulline, citrulline] |  | anabolic effect
